According to patent US20240391931A1 (Bristol-Myers Squibb Company, priority 2021, published 2024):

Target: HER2YVMA (Homo sapiens, UniProt P04626, INS775YVMA)
Assay: HER2 signaling (pHER2) in Hek293-HER2YVMA cells
Type: cell-based
Parameters: expressed in transfected cells; host or cells: HEK293 (pool), Ba/F3 (clones), BEAS2B (clones); lentiviral vector pCDH-CMV-MCS-EF1-Neo
Settings: 1.5 hr compound, 1% FBS, read-out: HEKYVMA pHER2 EC50
How it was run: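 Lentivirally transduced HER2YVMA lines (HEK293 pool; BEAS2B clone) treated 1.5 h at 37 °C in 1% FBS medium with compound at 0.0005–1.1 μM. Lysates read by MSD immunoassay for pHER2 (Tyr1248) normalized to total HER2, as % DMSO control; EC50 from variable-slope sigmoidal fit.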

HER2YVMA, sequence (P04626 with tags, fused parts or gaps INS775YVMA): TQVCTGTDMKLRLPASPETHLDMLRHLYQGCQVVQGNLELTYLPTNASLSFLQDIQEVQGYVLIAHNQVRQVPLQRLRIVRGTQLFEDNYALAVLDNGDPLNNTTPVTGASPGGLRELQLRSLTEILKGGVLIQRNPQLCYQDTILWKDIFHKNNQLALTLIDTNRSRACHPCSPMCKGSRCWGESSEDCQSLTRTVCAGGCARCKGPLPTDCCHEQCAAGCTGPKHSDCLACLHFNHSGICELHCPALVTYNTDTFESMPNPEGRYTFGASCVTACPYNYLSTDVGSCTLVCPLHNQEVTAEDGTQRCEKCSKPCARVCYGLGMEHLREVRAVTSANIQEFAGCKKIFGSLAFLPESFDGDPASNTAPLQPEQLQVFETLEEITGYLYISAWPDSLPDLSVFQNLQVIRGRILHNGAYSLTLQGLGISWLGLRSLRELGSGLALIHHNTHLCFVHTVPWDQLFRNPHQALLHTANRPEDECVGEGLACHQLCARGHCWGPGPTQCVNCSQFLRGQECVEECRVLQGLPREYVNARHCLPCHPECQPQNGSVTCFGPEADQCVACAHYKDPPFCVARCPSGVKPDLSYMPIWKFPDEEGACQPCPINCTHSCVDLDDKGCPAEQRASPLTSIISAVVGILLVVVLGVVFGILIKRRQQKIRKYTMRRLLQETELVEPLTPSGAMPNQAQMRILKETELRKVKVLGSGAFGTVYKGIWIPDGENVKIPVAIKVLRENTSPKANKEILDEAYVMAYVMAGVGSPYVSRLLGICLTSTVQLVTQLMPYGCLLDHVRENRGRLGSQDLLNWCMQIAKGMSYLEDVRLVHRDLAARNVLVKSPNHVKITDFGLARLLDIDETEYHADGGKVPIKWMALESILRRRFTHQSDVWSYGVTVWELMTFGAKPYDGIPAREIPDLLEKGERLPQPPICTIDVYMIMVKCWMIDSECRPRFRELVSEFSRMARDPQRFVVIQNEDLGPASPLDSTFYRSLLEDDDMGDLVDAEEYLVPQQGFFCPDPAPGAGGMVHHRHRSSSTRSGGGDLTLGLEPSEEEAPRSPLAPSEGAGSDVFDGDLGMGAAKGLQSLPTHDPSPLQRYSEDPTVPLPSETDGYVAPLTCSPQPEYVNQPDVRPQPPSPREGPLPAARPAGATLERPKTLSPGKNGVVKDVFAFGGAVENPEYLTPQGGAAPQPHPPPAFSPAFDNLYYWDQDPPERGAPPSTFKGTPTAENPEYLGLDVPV

Row | Structure (SMILES) | EC50
1 | Cc1ccc(Oc2ccc(Nc3ncnc4sc5c(c34)CCN(C(=O)/C=C/CN[C@H]3CC[C@H](OCC(F)(F)F)CC3)C5)cc2C)cn1 [Compound 70] | < 100 nM
2 | Cc1ccc(Oc2ccc(Nc3ncnc4sc5c(c34)CCN(C(=O)/C=C/CNC3CCC(C(=O)N(C)C)CC3)C5)cc2C)cn1 (stereo not drawn) [Compound 71] | < 100 nM
3 | Cc1ccc(Oc2ccc(Nc3ncnc4sc5c(c34)CCN(C(=O)/C=C/CNC34CCC(C#N)(CC3)CC4)C5)cc2C)cn1 [Compound 72] | < 100 nM
4 | Cc1ccc(Oc2ccc(Nc3ncnc4sc5c(c34)CCN(C(=O)/C=C/CN[C@H]3CCC[C@H](O)C3)C5)cc2C)cn1 [Compound 73] | < 100 nM
5 | Cc1ccc(Oc2ccc(Nc3ncnc4sc5c(c34)CCN(C(=O)/C=C/CN3CCC(O)C3)C5)cc2C)cn1 (stereo not drawn) [Compound 74] | < 100 nM
6 | Cc1ccc(Oc2ccc(Nc3ncnc4sc5c(c34)CCN(C(=O)/C=C/CN[C@@H](C)CO)C5)cc2C)cn1 [Compound 75] | < 100 nM
7 | Cc1ccc(Oc2ccc(Nc3ncnc4sc5c(c34)CCN(C(=O)/C=C/CN3CC4CC4C3)C5)cc2C)cn1 (stereo not drawn) [Compound 76] | < 100 nM
8 | Cc1cc(Nc2ncnc3sc4c(c23)CCN(C(=O)/C=C/CN2CC3CC2CO3)C4)ccc1Oc1ccc2ncnn2c1 (stereo not drawn) [Compound 77] | 100 to 350 nM
9 | Cc1cc(Nc2ncnc3sc4c(c23)CCN(C(=O)/C=C/CN(C)C(C)(C)C)C4)ccc1Oc1ccc2ncnn2c1 [Compound 80] | < 100 nM
10 | Cc1cc(Nc2ncnc3sc4c(c23)CCN(C(=O)/C=C/CN2CC3C(CO)C3C2)C4)ccc1Oc1ccc2ncnn2c1 (stereo not drawn) [Compound 81] | < 100 nM
11 | Cc1cc(Nc2ncnc3sc4c(c23)CCN(C(=O)/C=C/CN2CC3CC(C3)C2)C4)ccc1Oc1ccc2ncnn2c1 [Compound 82] | < 100 nM
12 | Cc1cc(Nc2ncnc3sc4c(c23)CCN(C(=O)/C=C/CN2CC(C)OC(C)C2C)C4)ccc1Oc1ccc2ncnn2c1 (stereo not drawn) [Compound 83] | < 100 nM
13 | Cc1cc(Nc2ncnc3sc4c(c23)CCN(C(=O)/C=C/CN2CC(C)(C)OC(C)(C)C2)C4)ccc1Oc1ccc2ncnn2c1 [Compound 84] | 100 to 350 nM
14 | O=C(/C=C/CN1CC2CC(C2)C1)N1CCc2c(sc3ncnc(Nc4ccc(Oc5ccc6ncnn6c5)c(Cl)c4)c23)C1 [Compound 85] | < 100 nM
15 | C=C(CN1CCc2c(sc3ncnc(Nc4ccc(Oc5ccc(C)nc5)c(C)c4)c23)C1)C(=O)OCC [Compound 86, Ethyl 2-((4-((3-methyl-4-((6-methylpyridin-3-yl)oxy)phenyl)amino)-5,8-dihydropyrido[4′,3′:4,5]thieno[2,3-d]pyrimidin-7(6H)-yl)methyl)acrylate] | < 100 nM
16 | O=C(/C=C/CN1CC2CC1CO2)N1CCc2c(sc3ncnc(Nc4ccc(Oc5ccc6ncnn6c5)c(Cl)c4)c23)C1 (stereo not drawn) [Compound 87] | < 100 nM
17 | O=C(/C=C/CN1CC2CCC(C2)C1)N1CCc2c(sc3ncnc(Nc4ccc(Oc5ccc6ncnn6c5)c(Cl)c4)c23)C1 [Compound 88] | < 100 nM
18 | CN(C/C=C/C(=O)N1CCc2c(sc3ncnc(Nc4ccc(Oc5ccc6ncnn6c5)c(Cl)c4)c23)C1)C(C)(C)C [Compound 91] | < 100 nM
19 | O=C(/C=C/CN1CC2C(CO)C2C1)N1CCc2c(sc3ncnc(Nc4ccc(Oc5ccc6ncnn6c5)c(Cl)c4)c23)C1 (stereo not drawn) [Compound 92] | < 100 nM
20 | C=CC(=O)N1CCc2[nH]c3ncnc(Nc4ccc(Oc5ccc(C)nc5)c(C)c4)c3c2C1 [Compound 94, 1-(4-((3-methyl-4-((6-methylpyridin-3-yl)oxy)phenyl)amino)-7,8-dihydro-5H-pyrido[3′,4′:4,5]pyrrolo[2,3-d]pyrimidin-6(9H)-yl)prop-2-en-1-one] | < 100 nM
21 | COc1ccc(Oc2ccc(Nc3ncnc4sc5c(c34)CCN(C(=O)/C=C/CN(C)C)C5)cc2C)cn1 [Compound 95, (E)-4-(Dimethylamino)-1-(4-((4-((6-methoxypyridin-3-yl)oxy)-3-methylphenyl)amino)-5,6-dihydropyrido[4′,3′:4,5]thieno[2,3-d]pyrimidin-7(8H)-yl)but-2-en-1-one] | < 100 nM
22 | CCOC/C=C/C(=O)N1CCc2c(sc3ncnc(Nc4ccc(Oc5ccc(C)nc5)c(C)c4)c23)C1 [Compound 96, (E)-4-ethoxy-1-(4-((3-methyl-4-((6-methylpyridin-3-yl)oxy)phenyl)amino)-5,8-dihydropyrido[4′,3′:4,5]thieno[2,3-d]pyrimidin-7(6H)-yl)but-2-en-1-one] | < 100 nM
23 | Cc1ccc(Oc2ccc(Nc3ncnc4[nH]c5c(c34)CN(C(=O)/C=C/CN(C)C)CC5)cc2C)cn1 [Compound 97, (E)-4-(dimethylamino)-1-(4-((3-methyl-4-((6-methylpyridin-3-yl)oxy)phenyl)amino)-5,7,8,9-tetrahydro-6H-pyrido[3′,4′:4,5]pyrrolo[2,3-d]pyrimidin-6-yl)but-2-en-1-one] | 100 to 350 nM
24 | Cc1ccc(Oc2ccc(Nc3ncnc4sc5c(c34)C(C)CN(C(=O)/C=C/CN(C)C)C5)cc2C)cn1 (stereo not drawn) [Compound 98, (E)-4-(dimethylamino)-1-(5-methyl-4-((3-methyl-4-((6-methylpyridin-3-yl)oxy)phenyl)amino)-5,8-dihydropyrido[4′,3′:4,5]thieno[2,3-d]pyrimidin-7(6H)-yl)but-2-en-1-one] | < 100 nM
25 | Cc1ccc(Oc2ccc(Nc3ncnc4sc5c(c34)CN(C(=O)/C=C/CN(C)C)C5)cc2C)cn1 [Compound 99, (E)-4-(dimethylamino)-1-(4-((3-methyl-4-((6-methylpyridin-3-yl)oxy)phenyl)amino)-5,7-dihydro-6H-pyrrolo[3′,4′:4,5]thieno[2,3-d]pyrimidin-6-yl)but-2-en-1-one] | < 100 nM
26 | Cc1ccc(Oc2ccc(Nc3ncnc4sc5c(c34)CCN(C(=O)/C=C/CN(C)C)CC5)cc2C)cn1 [Compound 100, (E)-4-(dimethylamino)-1-(4-((3-methyl-4-((6-methylpyridin-3-yl)oxy)phenyl)amino)-8,9-dihydro-5H-pyrimido[5′,4′:4,5]thieno[2,3-d]azepin-7(6H)-yl)but-2-en-1-one] | < 100 nM
27 | Cc1ccc(Oc2ccc(Nc3ncnc4sc5c(c34)CCCN(C(=O)/C=C/CN(C)C)C5)cc2C)cn1 [Compound 101, (E)-4-(Dimethylamino)-1-(4-((3-methyl-4-((6-methylpyridin-3-yl)oxy)phenyl)amino)-6,7-dihydro-5H-pyrimido[5′,4′:4,5]thieno[2,3-c]azepin-8(9H)-yl)but-2-en-1-one] | < 100 nM
28 | C=CC(=O)N1CCc2[nH]c3ncnc(Nc4ccc(Oc5ccc6ncnn6c5)c(C)c4)c3c2C1 [Compound 102, 1-(4-((4-([1,2,4]triazolo[1,5-a]pyridin-6-yloxy)-3-methylphenyl)amino)-5,7,8,9-tetrahydro-6H-pyrido[3′,4′:4,5]pyrrolo[2,3-d]pyrimidin-6-yl)prop-2-en-1-one] | 100 to 350 nM
29 | Cc1cc(Nc2ncnc3sc4c(c23)CN(C(=O)/C=C/CN(C)C)CC4)ccc1Oc1ccc2ncnn2c1 [Compound 103, (E)-1-(4-((4-([1,2,4]triazolo[1,5-a]pyridin-6-yloxy)-3-methylphenyl)amino)-7,8-dihydropyrido[3′,4′:4,5]thieno[2,3-d]pyrimidin-6(5H)-yl)-4-(dimethylamino)but-2-en-1-one] | < 100 nM
30 | Cc1cc(Nc2ncnc3sc4c(c23)CCN(C(=O)/C=C/CN(C)C)C4)ccc1Oc1ccc2nonc2c1 [Compound 104, (E)-1-(4-((4-(Benzo[c][1,2,5]oxadiazol-5-yloxy)-3-methylphenyl)amino)-5,6-dihydropyrido[4′,3′:4,5]thieno[2,3-d]pyrimidin-7(8H)-yl)-4-(dimethylamino)but-2-en-1-one] | < 100 nM
